Measured values reported in patent US20040248099A1, “Use of intermediate -conductance potassium channels and modulators for diagnosing and treating diseases having disturbed keratinocyte activity” (priority 2000, published 2004).
“Also recorded” adds a separate entry of the source.

Experiments:
[1] = tested on: HaCaT keratinocytes; assay: Patch-clamp recording of the membrane potential of HaCaT keratinocytes (current clamp; ATP-induced response); type: cell-based, human; conditions: for blockers leading to a comparable depolarization on a plateau during treatment with ATP: other K+ channel blockers tested
Description: In order to identify an ion channel which is substantially involved in the transduction of wound healing-specific signals, HaCaT cells were investigated electrophysiologically. The HaCaT keratinocytes were propagated in DEM containing 10% FCS (Gibco BRL) to which antibiotics (penicillin/streptomycin, 100 U/ml) had been added. […] The patch pipettes were prepared from small borosilicate tubes on a horizontal pulling device (DMZ, Zeitz) using the two-step pulling method. […] The resistance of these patch pipettes was 5-8 GΩ in the bath. After a seal in the GΩ range had been produced (typically 1.5-2 GΩ) the amplifier was switched to current clamp mode. […] The electrophysiological signals were recorded, amplified and digitalized using an Axopatch 200 amplifier in combination with a TL-1 Labmaster Interface and AXOTAPE software (Axon Instruments). The statistical analysis (one-way ANOVA with Bonferri post-test comparison) was carried out using Graphpad prism 2.0. […]
The inflow of liquid was gravity-dependent and was controlled by means of magnetic valves. Outflow was effected by applying a negative pressure using a vacuum pump. Substances were added, while observing visually, directly into the keratinocytes under investigation using a remotely controlled, magnet-controlled Y tube system (diameter of the efflux tube: 100 μm).
The electrophysiological recordings were carried out, using perforated patches, on HaCaT cells which had grown into a confluent monolayer.

[2] = tested on: HaCaT keratinocytes; assay: Proliferation of subconfluent HaCaT keratinocytes, number of cells per well determined daily; type: cell-based, human; conditions: n=3
Description: In order to investigate the effect of the hIK1 channel inhibitors clotrimazole and charybdotoxin, either 10 μM clotrimazole, 200 nM charybdotoxin (ChTx) or 1 mM 1-EBIO were/was added to cells which were growing subconfluently and the number of cells per well was determined daily.

[3] = tested on: HaCaT cells; assay: Keratinocyte differentiation by immunostaining with anti-K10 antibody; type: cell-based, human; conditions: 1-EBIO 1 mM, 3 days
[4] = tested on: HaCaT cells; assay: Immunoblotting of the differentiation markers involucrin, keratin 1 and keratin 10; type: cell-based, human; conditions: 1-EBIO 1, 100, 1000 μM, 4 days; dose-dependent
Description: For this, 5×10^5 HaCaT cells per well were grown in medium in a 6-well plate. […] 1% DMSO in medium was used as the solvent control (lane ‘C’). The cells were incubated for 4 days, with the medium being replaced daily. After 4 days, the protein concentration in the cell lysates was determined (BCA Assay, Pierce). Immunoblotting was then used to compare equal quantities of protein from the different lysates with the keratinocyte differentiation markers involucrin (1:500, Sigma) and keratin 1 and 10 (1:250, Progen) (FIG. 6).

[5] = tested on: HaCaT keratinocytes; assay: BrDU incorporation cell proliferation ELISA in HaCaT keratinocytes
Description: The influence of activators of IK1 on proliferation was investigated using 1-EBIO and zolxazolamine (see above). Firstly, the influence of different concentrations of 1-EBIO on the growth rate of HaCaT cells was measured in the presence and in the absence of serum. For this purpose, 1×10^4 HaCaT cells per well were cultured in keratinocyte growth medium (KGM) for 5 days in a 96-well plate, in order to synchronize the cell cycle, with this being followed by a two-day incubation in the presence of different concentrations of 1-EBIO in KGM (see FIGS. 7 and 8) in the absence (FIG. 7) and in the presence (FIG. 8) of serum. […] 1% DMSO in KGM served as the solvent control. Cell proliferation was measured by the incorporation of bromodideoxyuridine (BrDU) while cell division was measured in accordance with the manufacturer's instructions (‘The Cell Proliferation ELISA, BrDU, Roche). The incorporation of BrDU was quantified by determining the absorption at 450 nm. In FIGS. 7 and 8, the absorption (A[450 nm]) is in each case plotted on the Y axis as a measure of the proliferation rate. Greater absorption reflects greater proliferation.

Molecule: charybdotoxin (QFTNVSCTTSKECWSVCQRLHNTSRGKCMNKKCRCYS)
- effect on the established ATP-mediated hyperpolarization ([1]; ChTx 100 nM added after ATP, ATP still present, n=2): complete reversal of the hyperpolarization
- effect on the ATP-induced electrophysiological response ([1]; ChTx 100 nM prior to ATP, n=4, potential stayed on a depolarized plateau): completely prevented repolarization
- effect on the ATP-induced electrophysiological response ([1]; ChTx 10-100 nM prior to ATP, n=15): retarded repolarization of the rapid depolarization and prevented hyperpolarization
- inhibition of the ATP-mediated hyperpolarization ([1]; charybdotoxin at various concentrations prior to ATP): dose-dependent inhibition
- influence on proliferation ([2]; charybdotoxin 200 nM): retarded proliferation; also recorded: growth which was only retarded

Molecule: Clc1ccccc1C(c1ccccc1)(c1ccccc1)n1ccnc1 [clotrimazole]
- effect on the ATP-induced electrophysiological response, compared with 100 nM ChTx ([1]; clotrimazole 1 μM prior to ATP, n=3): The same effect
- influence on proliferation ([2]; clotrimazole 10 μM): complete inhibition
- influence on proliferation ([2]; clotrimazole 10 μM, listed as Clotrimazole): inhibited proliferation completely

Molecule: calphostin C
- effect on the ATP-mediated change in voltage ([1]; calphostin C 50 nM): no effect

Molecule: Nc1ncnc2c1ncn2[C@@H]1O[C@H](COP(=O)(O)OP(=O)(O)OP(=O)(O)O)[C@@H](O)[C@H]1O [ATP]
- reversibility of the hyperpolarization ([1]; 1 μM ATP, n=9): could be reversed rapidly by washing out
- hyperpolarization ([1]; 10 μM ATP, n=28): 30±2 mV
- change in the membrane potential on perfusion ([1]; ATP 1-1000 μM, transient depolarization followed by long-lasting hyperpolarization): biphasic change in the membrane potential
- duration of the strong hyperpolarization after addition ([1]; ATP concentrations of ≧10 μM): at least 5 min

Molecule: CCn1c(=O)[nH]c2ccccc21 [1-EBIO, 1-ethyl-2-benzimidazolinone]
- membrane potential (rapid and powerful hyperpolarization to) ([1]; 1-EBIO 1 mM, n=3): −83±3 mV
- transient depolarization on adding ATP, compared with controlled conditions ([1]; ATP 10 μM in the presence of 1-EBIO 1 mM): much stronger
- influence on proliferation ([2]; 1-EBIO 1 mM): inhibited proliferation completely; also recorded: complete inhibition
- proportion of K10-stained (partially differentiated) cells versus control cells [3]: signficantly reduced
- effect on differentiation (involucrin, K1, K10 protein) [4]: inhibit differentiation
- cell morphology and apoptosis under activator [5]: no sign of apoptosis
- concentration of strongest inhibition of serum-induced proliferation ([5]; 10% FCS): 1 mM
- dose dependence of the inhibition of serum-induced proliferation ([5]; 10% FCS): dose-dependent
- effect on serum-induced proliferation (BrDU incorporation) ([5]; 10% FCS, different concentrations of 1-EBIO, two-day incubation): inhibit serum-induced proliferation
- stimulation of cell proliferation (BrDU incorporation) ([5]; absence of serum, different concentrations of 1-EBIO, two-day incubation): not on their own able to stimulate cell proliferation

Molecule: NCCc1c[nH]cn1 [histamine]
- electrophysiological response compared with ATP ([1]; histamine 100 μM, n=4): practically identical quantitatively and kinetically

Molecule: CCCCCCCCCCCCCC(=O)O[C@@H]1[C@@H](C)[C@@]2(O)[C@@H](C=C(CO)C[C@]3(O)C(=O)C(C)=C[C@@H]23)[C@@H]2C(C)(C)[C@]12OC(C)=O [PMA]
- influence on the effect of ATP [1]: no influence

Molecule: [Ba+2] [Ba^2+]
- blockers leading to a comparable depolarization on a plateau during treatment with ATP [1]: None

Molecule: CC[N+](CC)(CC)CC [TEA]
- blockers leading to a comparable depolarization on a plateau during treatment with ATP [1]: None

Molecule: CCn1c(=O)[nH]c2cc(Cl)c(Cl)cc21 [DCEBIO, 5,6-dichloro-1-ethyl-1,3-dihydro-2H-benzimidazol-2-one]
- concentration for the same electrophysiological effect as 1-EBIO, times less concentrated ([1]; HaCaT cells): 300-1000 times
